The test concerns the target BRD4 (Homo sapiens, UniProt O60885). As to the kind of experiment: Differential Scanning Fluorimetry (DSF), stability of BRD4 upon ligand binding. As to conditions: for ΔTm at 4 µM: 100 μM protein, 4 μM compound and 2% DMSO; for IC50: estimated. The method, then: DSF=Differential Scanning Fluorimetry; provides a measure of the increased stability of BRD4 upon ligand binding The DSF experiment was run at 100 μM protein, 4 μM compound and 2% DMSO.

As a reminder, the ΔTm is the shift of the melting midpoint relative to a reference. A word on the IC50: it is the concentration that inhibits the measured activity by half. With `COc1cc(Nc2nc(Nc3ccc(N4CCNCC4)cc3)ncc2C)ccc1Cl`, the ΔTm at 4 µM was found to be 7.1 ± 0.15 °C and the IC50 is 92 nM.
On the same counts, the results for `CN1CCN(c2ccc(Nc3nc(Nc4cccc(S(=O)(=O)NC(C)(C)C)c4)c4ccccc4n3)cc2)CC1` are 2.6 ± 0.081 °C and 2900 nM.
Turning to `Cc1cnc(Nc2ccc(C(=O)NC3CCN(C)CC3)cc2)nc1Nc1cccc(NS(=O)(=O)C(C)(C)C)c1`, the ΔTm at 4 µM came to 7.6 ± 0.047 °C and the IC50 was 62 nM.
With `CN1CCN(c2ccc(Nc3nc4c(c(Nc5ccc(Cl)c(NS(=O)(=O)C6CC6)c5)n3)COC4)cc2)CC1`, the ΔTm at 4 µM was determined as 5.4 ± 0.2 °C and the IC50 was 350 nM.
For `Cc1cnc(Nc2ccc(C(=O)NC3CCN(C)CC3)c(F)c2)nc1Nc1ccc(Cl)c(NS(=O)(=O)C2(C)CC2)c1`, in that order: 10.9 ± 0.22 °C and 21 nM.
For `Cc1cnc(Nc2ccc(N3CCN(C)CC3)cc2)nc1Nc1cccc(OC(C)C)c1`, the ΔTm at 4 µM turned out to be 6.6 ± 0.1 °C and the IC50 was 140 nM.
Take `CN1CCN(c2ccc(Nc3ncc(C(=O)O)c(Nc4cccc(S(=O)(=O)NC(C)(C)C)c4)n3)cc2)CC1`: the ΔTm at 4 µM was -0.2 ± 0.2 °C and the half-maximal inhibitory concentration (IC50) was 25000 nM.
`Cc1cc(Nc2ncc(C)c(Nc3ccc(Cl)c(NS(=O)(=O)C(C)(C)C)c3)n2)ccc1N1CCN(C)CC1`: the ΔTm at 4 µM was found to be 10.4 ± 0.151 °C and the concentration for half-maximal inhibition (IC50) is 29.5 nM.
For `Cc1ccc(Nc2nc(Nc3ccc(C4CCN(C)CC4)cc3)ncc2C)cc1S(=O)(=O)NC1CCC1`, in that order: 7.7 ± 0.17 °C and 58 nM.
As for `Cc1ccc(Nc2nc(Nc3ccc(N4CCN(C)CC4)cc3)ncc2C)cc1S(=O)(=O)NC(C)(C)C`, the ΔTm at 4 µM amounted to 8.6 ± 0.09 °C and the IC50 was 30 nM.
For `Cc1cnc(Nc2ccc(N3CCN(C)CC3)c(F)c2)nc1Nc1ccc2c(c1)N(S(=O)(=O)C(C)(C)C)CC2`, in that order: 12.1 ± 0.105 °C and 9.8 nM.
Regarding `Cc1cnc(Nc2ccc(N3CCN(C)CC3)cc2)nc1Nc1cccc(NS(=O)(=O)C(C)C)c1`, the ΔTm at 4 µM stood at 7.5 ± 0.14 °C and the IC50 was 66 nM.
On the same counts, the results for `CC(C)NS(=O)(=O)c1cccc(Nc2nc(N3CCN(c4ccc(N)cc4)CC3)ncc2Br)c1` are 0.16 °C and 19200 nM.
Regarding `Cc1cnc(Nc2ccc(N3CCN(C)CC3)cc2)nc1Nc1cccc(NC(=O)C(C)C)c1`, the ΔTm at 4 µM was determined as 4.1 ± 0.12 °C and the half-maximal inhibitory concentration (IC50) is 900 nM.
For `COc1cc(Nc2nc(Nc3ccc(N4CCN(C)CC4)cc3)ncc2Cl)cc(OC)c1Cl`, in that order: 2 ± 0.42 °C and 4700 nM.
On the same counts, the results for `Cc1cnc(Nc2ccc(C(=O)NC3CCN(C)CC3)c(F)c2)nc1Nc1ccc2c(c1)N(S(=O)(=O)C(C)(C)C)CCC2` are 11.4 ± 0.103 °C and 15.5 nM.
Take `CC(C)(C)NS(=O)(=O)c1cccc(Nc2nc(Nc3ccc(N4CCOCC4)cc3)ncc2Cl)c1`: the ΔTm at 4 µM is -0.071 ± 0.042 °C and the half-inhibitory concentration (IC50) is 22900 nM.
For `Cc1cnc(Nc2ccc(N3CCN(C)CC3)cc2)nc1Nc1cccc([N+](=O)[O-])c1`, in that order: 3.17 ± 0.142 °C and 3130 nM.
On the same counts, the results for `CC(C)NS(=O)(=O)c1cccc(Nc2nc(Nc3ccc(N4CCN(C)CC4)cc3)nc3c2COC3)c1` are 0.6 ± 0.14 °C and 14000 nM.
For `Cc1cnc(Nc2ccc(N3CCN(C)CC3)cc2)nc1Nc1cccc(S(=O)(=O)NC(C)C)c1`, in that order: 6 ± 0.1 °C and 210 nM.
For the compound `Cc1cnc(Nc2ccc(N3CCN(C)CC3)cc2)nc1Nc1cccc(NS(=O)(=O)c2ccccc2)c1`, the ΔTm at 4 µM was 4.1 ± 0.07 °C and the IC50 is 900 nM.
For `COc1cc(Nc2cc(C)nc(Nc3ccc(N4CCN(C)CC4)cc3)n2)ccc1Cl`, in that order: 2.6 ± 0.095 °C and 2900 nM.
For `Cc1cnc(Nc2ccc(N3CCN(C)CC3)cc2)nc1Nc1cccc(NC(=O)NC(C)C)c1`, the ΔTm at 4 µM worked out at 2.1 ± 0.1 °C and the IC50 is 4300 nM.
Consider `CC(C)NS(=O)(=O)c1cccc(Nc2nc(Nc3ccc(N4CCN(C)CC4)cc3)nc3ccccc23)c1`, for which the ΔTm at 4 µM was 5 ± 0.13 °C and the IC50 is 480 nM.
Turning to `Cc1cnc(Nc2ccc(N3CCN(C)CC3)cc2)nc1Nc1ccc(Cl)c(NS(=O)(=O)CC(C)C)c1`, the ΔTm at 4 µM was found to be 7.28 ± 0.091 °C and the IC50 is 221 nM.
For the compound `Cc1cnc(Nc2ccc(N3CCN(C)CC3)c(C(F)(F)F)c2)nc1Nc1cccc(NS(=O)(=O)C(C)(C)C)c1`, the ΔTm at 4 µM was 8.12 ± 0.044 °C and the IC50 is 129 nM.
Regarding `Cc1cnc(Nc2ccc(CC(=O)N3CCN(C)CC3)cc2)nc1Nc1ccc(Cl)cc1`, the ΔTm at 4 µM was 4.1 ± 0.21 °C and the 50% inhibitory concentration (IC50) was 930 nM.
On the same counts, the results for `CN1CCN(c2ccc(Nc3ncc(Cl)c(Nc4cccc(C(C)(C)C)c4)n3)cc2)CC1` are 0.12 ± 0.053 °C and 19800 nM.
With `CN1CCN(c2ccc(Nc3nc4c(c(Nc5cccc(NS(=O)(=O)C(C)(C)C)c5)n3)CCC4)cc2)CC1`, the ΔTm at 4 µM came to 6.4 ± 0.12 °C and the IC50 was 150 nM.
As for `Cc1ccc(Nc2nc(Nc3ccc(N4CCN(C)CC4)cc3)nc3ccccc23)cc1S(=O)(=O)NC(C)(C)C`, the ΔTm at 4 µM is 6.1 ± 0.032 °C and the IC50 was 200 nM.
On the same counts, the results for `COc1cc(Nc2nc(Nc3ccc(N4CCN(C)CC4)cc3)ncc2C(C)C)ccc1Cl` are 1.4 ± 0.11 °C and 7400 nM.
Take `COc1cccc(Nc2nc(Nc3ccc(N4CCN(C)CC4)cc3)ncc2C)c1`: the ΔTm at 4 µM was found to be 3.2 ± 0.083 °C and the half-maximal inhibitory concentration (IC50) is 1850 nM.
For `Cc1cnc(Nc2ccc(CC(=O)N3CCN(C)CC3)cc2)nc1Nc1ccc(C(=O)NC2CC2)cc1`, in that order: 6.8 ± 0.15 °C and 110 nM.
For `Cc1cnc(Nc2ccc(N3CCN(C)CC3)c(F)c2)nc1Nc1cccc(NS(=O)(=O)C2(C)CC2)c1`, in that order: 9.1 ± 0.05 °C and 20 nM.
For `Cc1ccc(Nc2nc(Nc3ccc(N4CCN(C)CC4)cc3)ncc2C)cc1S(=O)(=O)NC1CCC1`, in that order: 6.7 ± 0.13 °C and 130 nM.
For `CN1CCN(c2ccc(Nc3ncc(F)c(Nc4ccc(C(=O)Nc5ccccc5)cc4)n3)cc2)CC1`, the ΔTm at 4 µM was 0.35 ± 0.068 °C and the IC50 is 17000 nM.
On to `CC(C)NS(=O)(=O)c1cccc(Nc2nc(Nc3ccc(N4CCNCC4)cc3)ncc2Br)c1`, for which the ΔTm at 4 µM amounted to 5 °C and the IC50 is 460 nM.
For the compound `Cc1cnc(Nc2cc(F)c(N3CCN(C)CC3)c(F)c2)nc1Nc1ccc(Cl)c(NS(=O)(=O)C(C)(C)C)c1`, the shift in melting temperature (ΔTm) at 4 µM amounted to 13.8 ± 0.191 °C and the IC50 was 3.29 nM.
For `Cc1cnc(Nc2ccc(N3CCN(C)CC3)cc2)nc1Nc1cccc(NC(=O)C(C)(C)C)c1`, in that order: 3.5 ± 0.19 °C and 1500 nM.
On the same counts, the results for `Cc1ccc(Nc2nc(Nc3ccc(N4CCN(C)CC4)c(F)c3)ncc2C)cc1S(=O)(=O)NC1CCC1` are 6.8 ± 0.01 °C and 120 nM.
Regarding `Cc1cnc(Nc2ccc(N3CCN(C)CC3)cc2)nc1Nc1ccc2c(c1)N(S(=O)(=O)C(C)(C)C)CCC2`, the ΔTm at 4 µM stood at 8.72 ± 0.141 °C and the half-inhibitory concentration (IC50) is 87.3 nM.
On the same counts, the results for `CC(C)(C)NS(=O)(=O)c1cccc(Nc2nc(Nc3ccc(N4CCNCC4)cc3)ncc2C(F)(F)F)c1` are 2.9 ± 0.031 °C and 2330 nM.
On the same counts, the results for `CCOC(=O)c1cnc(Nc2ccc(N3CCN(C)CC3)cc2)nc1Nc1cccc(NS(=O)(=O)C(C)(C)C)c1` are 3.4 ± 0.12 °C and 1600 nM.
Regarding `CC(C)S(=O)(=O)Nc1cccc(Nc2nc(Nc3ccc(N4CCN(C)CC4)cc3)nc3c2COC3)c1`, the ΔTm at 4 µM was determined as 3.9 ± 0.24 °C and the IC50 was 1000 nM.
On the same counts, the results for `CN1CCN(c2ccc(Nc3ncc(F)c(Nc4ccc(Cl)c(NS(=O)(=O)C(C)(C)C)c4)n3)cc2)CC1` are 7.2 ± 0.17 °C and 85 nM.
On to `COc1ccc(Nc2nc(Nc3ccc(N4CCN(C)CC4)cc3)ncc2C)cc1OC`, for which the ΔTm at 4 µM was found to be 5.6 ± 0.059 °C and the IC50 was 290 nM.
For `Cc1ccc(Nc2nc(Nc3ccc(C(=O)NC4CCN(C)CC4)c(F)c3)ncc2C)cc1S(=O)(=O)NC1CCC1`, in that order: 7.8 ± 0.15 °C and 54 nM.
As to `Cc1cnc(Nc2ccc(N3CCN(C)CC3)cc2)nc1Nc1cccc(NS(=O)(=O)C2(C)CC2)c1`, the ΔTm at 4 µM was 7.5 ± 0.23 °C and the IC50 was 68 nM.
For `Cc1cnc(Nc2ccc(N3CCN(C)CC3)cc2)nc1Nc1ccc2c(c1)OCO2`, in that order: 0.79 ± 0.079 °C and 12000 nM.
Turning to `CC(C)NS(=O)(=O)c1cccc(Nc2nc(Nc3ccc(N4CCN(C)CC4)cc3)ncc2Cl)c1`, the ΔTm at 4 µM was 4.6 ± 0.12 °C and the IC50 was 630 nM.
On the same counts, the results for `CCCS(=O)(=O)Nc1cc(Nc2nc(Nc3ccc(N4CCN(C)CC4)cc3)ncc2C)ccc1Cl` are 6.7 ± 0.15 °C and 130 nM.
For `CN1CCN(c2ccc(Nc3ncc(Cl)c(Nc4cccc(S(=O)(=O)NC(C)(C)C)c4)n3)cc2)CC1`, in that order: 5.7 ± 0.054 °C and 270 nM.
Turning to `Cc1cnc(Nc2ccc(CC(=O)N3CCN(C)CC3)cc2)nc1Nc1ccc(Cl)c(Cl)c1`, the ΔTm at 4 µM turned out to be 4.7 ± 0.14 °C and the IC50 was 580 nM.
On the same counts, the results for `CCc1cnc(Nc2ccc(N3CCOCC3)cc2)nc1Nc1cccc(S(=O)(=O)NC(C)C)c1` are -0.29 °C and 27100 nM.
For `CCS(=O)(=O)Nc1cc(Nc2nc(Nc3ccc(N4CCN(C)CC4)cc3)ncc2C)ccc1Cl`, in that order: 7.93 ± 0.183 °C and 145 nM.
On to `Cc1cnc(Nc2cc(F)c(N3CCN(C)CC3)c(F)c2)nc1Nc1ccc(Cl)c(NS(=O)(=O)C2(C)CC2)c1`, for which the thermal shift (ΔTm) at 4 µM was 12.3 ± 0.167 °C and the IC50 was 8.6 nM.
On the same counts, the results for `Cc1cnc(Nc2ccc(N3CCN(C)CC3)cc2)nc1Nc1ccc(Cl)c(NS(=O)(=O)C2CC2)c1` are 7 ± 0.14 °C and 100 nM.
Regarding `COc1cc(C(=O)NC2CCN(C)CC2)ccc1Nc1ncc(C)c(Nc2cc(OC)c(Cl)c(OC)c2)n1`, the ΔTm at 4 µM worked out at 3 ± 0.11 °C and the 50% inhibitory concentration (IC50) was 2200 nM.
In the case of `COc1cc(Nc2nc(Nc3ccc(N4CCN(C)CC4)cc3)ncc2C)c(OC)cc1Cl`, the ΔTm at 4 µM worked out at 0.57 ± 0.25 °C and the IC50 is 14000 nM.

The values above are taken from patent US10526291B2, “Potent dual BRD4-kinase inhibitors as cancer therapeutics” (H. Lee Moffitt Cancer Center and Research Institute, Inc., priority 2014, dated 2020).
